{
  "source": "patent US8173428B2",
  "about": "“LNA oligonucleotides and the treatment of cancer” (Santaris Pharma A/S, priority 2004, dated 2012)",
  "key": {"Bcl-2 mRNA": {"system": "Bcl-2 mRNA", "test": "Bcl-2 mRNA expression by real-time PCR in 15PC3 cells", "format": "cell-based, human", "method": "To determine the relative Survivin mRNA level in oligonucleotide treated and untreated cells, the generated cDNA was used in quantitative PCR analysis using an iCycler from BioRad. The cDNA was diluted 5-fold and 8 μl was mixed with 52 μl Taqman probe master mix containing 30 μl Platinum Quantitative PCR SuperMix UDG 2×PCR master mix (Invitrogen), 3 μl 20× Taqman probe and primer mix (forward primer: 5′[…] (SEQ ID NO:29), final 0.9 μM. Reverse primer: 5′[…] (SEQ ID NO:30), final 0.6 μM and taqman probe: FAM-[…]-TAMRA (SEQ ID NO:31), final 0.1 μM) and 19 μl H2O. The 60 μl were dispersed in two wells (96 well plates) with 25 μl in each well. For human Bcl-2 the PCR primers were:\nforward primer: 5′ […] 3′ (final concentration in the assay; 0.6 μM) (SEQ ID NO: 32) reverse primer: 5′ […] 3′ (final concentration in the assay; 0.6 μM) (SEQ ID NO: 33) and the PCR probe was: 5′ FAM-[…]-TAMRA 3′ (final concentration in the assay; 0.1 μM) (SEQ ID NO: 34). […]\nThe primers and probe were obtained from […] (France). To normalize any variance in sample preparation, the endogenous GAPDH mRNA was quantified using a pre-developed Taqman assay reagent from Applied Biosystems (4310884E) according to manufacturer's Instructions. […] Relative quantities of Survivin mRNA were determined from the calculated threshold cycle using the iCycler IQ Real Time Detection System software."}, "Survivin mRNA": {"system": "Survivin mRNA", "test": "Tumour analysis: Survivin mRNA after intratumoural injection", "format": "in vivo, Balb/cA-nu mice", "settings": "25 mg/kg intratumoral, 6 times over 2 weeks, sampling 24 hours after last dose, versus saline", "method": "Model: PC-3 human prostate cancer cells (ECACC) are mixed with Matrigel and injected s.c. into both flanks of female Balb/cA-nu mice on Day 0.\nAdministration: Oligonucleotides i.p. (see FIG. 8) or intratumoural (see FIG. 9), Taxol i.v., all according to schedule\nTotal RNA isolation: Approximately 20 mg tumour tissue was homogenized in 400 μl RTL buffer (Qiagen) supplemented with 1% mercaptoethanol. Total RNA was isolated using RNeasy mini kit (Qiagen) according to the manufacture's instructions.\ncDNA synthesis: First strand synthesis was performed using OmniScript Reverse Transcriptase kit according to the manufacturer's instructions (Qiagen). […] Protein levels were analysed on individual tumours by western blotting (see FIG. 9). Real time PCR analysis: To determine the relative Survivin mRNA level treated and untreated tumours, the generated cDNA was used in quantitative PCR analysis using an iCycler from BioRad. The cDNA was diluted 5-fold and 8 μl was mixed with 52 μl Taqman probe master mix containing 30 μl Platinum Quantitative PCR SuperMix UDG 2×PCR master mix (Invitrogen), 3 μl 20× Taqman probe and primer mix (forward primer: 5′-[…]-3′ (SEQ ID NO. 29), final 0.9 μM. Reverse primer: 5′-[…]-3′ (SEQ ID NO. 30), final 0.6 μM and taqman probe: FAM-5′-[…]-TAMRA-3′ (SEQ ID NO. 31), final 0.1 μM) and 19 μl H2O. […]"}},
  "note": "Oligonucleotides are written 5' to 3', each unit as a sugar letter and its base; * is a phosphorothioate linkage, no mark a phosphodiester; rarer units and linkages stand in square brackets, end groups in braces. Plain capitals give the bases only. l = locked nucleic acid (LNA); [5mC] = 5-methylcytosine; d = 2'-deoxy (DNA)",
  "data": [
    {"substance": "5′-^MeCsTs^MeCsAsastscscsastsgsgs^MeCsAsGsc-3′ (l[5mC]*lT*l[5mC]*lA*dA*dT*dC*dC*dA*dT*dG*dG*l[5mC]*lA*lG*dC) [SEQ ID NO. 2]", "values": [
      {"measurement": "Bcl-2 mRNA expression", "setting": "Bcl-2 mRNA; 10 nM, 24 hours, 15PC3 cells, single agent or combined with control oligonucleotides", "value": "have effects on Survivin and Bcl-2 expression"},
      {"measurement": "Bcl-2 down-regulation", "setting": "Bcl-2 mRNA; summary statement, conditions not given", "value": "down-regulation of Bcl-2"},
      {"measurement": "Survivin mRNA level in tumours", "setting": "Survivin mRNA", "value": "reduced levels of both mRNA and Survivin protein"}
    ]}
  ]
}
